Changes are numbered by the printed parent chain. pIC50: −log10 of the molar value. Bounds are passed on as bounds.

IC50 data for 28 molecules are collected here from US9512107B2, “Therapeutically active compositions and their methods of use” (Agios Pharmaceuticals, Inc., priority 2012, dated 2016).

One assay has as its target T1, IDH2 R172K (Homo sapiens, UniProt P48735, R172K).
T1 sequence (P48735 40-452 R172K): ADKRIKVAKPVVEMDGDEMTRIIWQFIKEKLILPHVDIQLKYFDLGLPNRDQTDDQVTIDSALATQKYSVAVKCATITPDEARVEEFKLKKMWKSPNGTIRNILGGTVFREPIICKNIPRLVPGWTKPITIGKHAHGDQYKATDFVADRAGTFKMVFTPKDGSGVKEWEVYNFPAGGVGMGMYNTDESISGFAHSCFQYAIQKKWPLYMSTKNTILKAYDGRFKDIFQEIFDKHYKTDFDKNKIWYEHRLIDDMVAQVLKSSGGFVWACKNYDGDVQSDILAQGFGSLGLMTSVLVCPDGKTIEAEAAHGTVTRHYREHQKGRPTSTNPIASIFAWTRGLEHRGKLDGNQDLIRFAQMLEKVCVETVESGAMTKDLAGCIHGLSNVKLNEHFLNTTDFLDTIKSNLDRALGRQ
Briefly: IDH2 R172K enzymatic assay (NADPH cofactor depletion, diaphorase/resazurin readout). It is filed as biochemical. The conditions noted are these: read-out: Enz R172K. In outline: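 Test compounds are incubated with the mutant enzyme for one hour at ambient temperature. A substrate mix of 50 μM NADPH plus 6.3 mM α-KG initiates turnover, which proceeds for one hour. Diaphorase and resazurin then halt the reaction by depleting the cofactor and convert the remaining NADPH into a fluorescent signal.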

A further assay concerns the target T2, IDH2 R140Q (Homo sapiens, UniProt P48735, R140Q).
T2 sequence (P48735 40-452 R140Q): T1 sequence (P48735 40-452 R172K) with R101Q, K133R
As to the kind of experiment: IDH2 R140Q enzymatic assay (cofactor depletion, similar format). It is filed as biochemical. The conditions noted are these: read-out: Enz R140Q.

Assay [1] has as its system U87MG pLVX-IDH2 R140Q-neo cells. Briefly: U87MG pLVX-IDH2 R140Q-neo cell based assay, 2-HG in media by LC-MS at 48 hours. The conditions noted are these: Homo sapiens, U-87 MG. In outline:
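U87MG cells stably expressing IDH2 R140Q were seeded overnight, then exposed to compound at 0.2% final DMSO at 37 °C, 5% CO2. 2-HG in the medium was quantified by LC-MS at 48 h. Growth inhibition was read by CellTiter-Glo luminescence at 72 h.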

On to `c1ccc(-c2nc(Nc3ccncc3)nc(NC3CCOC3)n2)cc1` (stereo not drawn) [Compound 235, 6-phenyl-N^2-(pyridin-4-yl)-N^4-(tetrahydrofuran-3-yl)-1,3,5-triazine-2,4-diamine], for which the pIC50 at IDH2 R172K was 5.00 to 6.00; at IDH2 R140Q, 6.00 to 7.00; in assay [1] it was 6.00 to 7.00.

For `c1ccc(-c2nc(Nc3ccncc3)nc(NC3COC3)n2)cc1` [Compound 236, N^2-(oxetan-3-yl)-6-phenyl-N^4-(pyridin-4-yl)-1,3,5-triazine-2,4-diamine], the pIC50 at IDH2 R172K is 5.00 to 6.00; on IDH2 R140Q, 6.00 to 7.00; in assay [1], 6.00 to 7.00.

With `c1ccc(Nc2nc(NCC3CCO3)nc(-c3ccccc3)n2)cc1` (stereo not drawn) [Compound 237, N^2-(oxetan-2-ylmethyl)-N^4,6-diphenyl-1,3,5-triazine-2,4-diamine], the pIC50 at IDH2 R172K is 5.00 to 6.00; at IDH2 R140Q it was 6.00 to 7.00; in assay [1], 6.00 to 7.00.

On to `OCCNc1nc(Nc2ccccc2)nc(-c2ccccc2)n1` [Compound 238, 2-(4-phenyl-6-(phenylamino)-1,3,5-triazin-2-ylamino)ethanol], for which the pIC50 at IDH2 R172K was 5.00 to 6.00; at IDH2 R140Q, 6.00 to 7.00; in assay [1], 6.00 to 7.00.

`CC(C)(CO)CNc1nc(Nc2ccccc2)nc(-c2ccccc2)n1` [Compound 239, 2,2-dimethyl-3-(4-phenyl-6-(phenylamino)-1,3,5-triazin-2-ylamino)propan-1-ol]: the pIC50 on IDH2 R172K was 6.00 to 7.00; on IDH2 R140Q, over 7.00; in assay [1] it was over 7.00.

For the molecule `CC(O)CNc1nc(Nc2ccccc2)nc(-c2ccccc2)n1` (stereo not drawn) [Compound 240, 1-(4-phenyl-6-(phenylamino)-1,3,5-triazin-2-ylamino)propan-2-ol], the pIC50 is 5.00 to 6.00 at IDH2 R172K, over 7.00 at IDH2 R140Q and 6.00 to 7.00 in assay [1].

As to `CC(CO)Nc1nc(Nc2ccccc2)nc(-c2ccccc2)n1` (stereo not drawn) [Compound 241, 2-(4-phenyl-6-(phenylamino)-1,3,5-triazin-2-ylamino)propan-1-ol], the results for the pIC50 (on IDH2 R172K; on IDH2 R140Q; in assay [1]) were 5.00 to 6.00, over 7.00 and 6.00 to 7.00, respectively.

For the molecule `CC(C)C(CO)Nc1nc(Nc2ccccc2)nc(-c2ccccc2)n1` (stereo not drawn) [Compound 242, 3-methyl-2-(4-phenyl-6-(phenylamino)-1,3,5-triazin-2-ylamino)butan-1-ol], the pIC50 is 5.00 to 6.00 at IDH2 R172K, 6.00 to 7.00 on IDH2 R140Q and 6.00 to 7.00 in assay [1].

In the case of `CC(C)OCC(=O)Nc1nc(Nc2ccccc2)nc(-c2ccccc2)n1` [Compound 244, 2-isopropoxy-N-(4-phenyl-6-(phenylamino)-1,3,5-triazin-2-yl)acetamide], the pIC50 was 6.00 to 7.00 on IDH2 R172K, 6.00 to 7.00 on IDH2 R140Q and 5.00 to 6.00 in assay [1].

As to `CC1(C(=O)Nc2nc(Nc3ccccc3)nc(-c3ccccc3)n2)CC1` [Compound 245], the pIC50 at IDH2 R172K was 6.00 to 7.00; on IDH2 R140Q, over 7.00; in assay [1], 6.00 to 7.00.

In the case of `CC(C)Nc1nc(Nc2cccc(C#N)c2)nc(-c2ccccn2)n1` [Compound 246, 3-(4-(isopropylamino)-6-(pyridin-2-yl)-1,3,5-triazin-2-ylamino)benzonitrile], the pIC50 on IDH2 R172K was 6.00 to 7.00; at IDH2 R140Q, 6.00 to 7.00; in assay [1], over 7.00.

On to `CC(C)Nc1nc(Nc2ccccc2)nc(-c2cccc(C(F)(F)F)n2)n1` [Compound 247, N^2-isopropyl-N^4-phenyl-6-(6-(trifluoromethyl)pyridin-2-yl)-1,3,5-triazine-2,4-diamine], for which the pIC50 (at IDH2 R172K; at IDH2 R140Q; in assay [1]) was over 7.00 each time.

Take `CCNc1nc(Nc2ccncc2)nc(-c2ccccc2)n1` [Compound 248, N^2-ethyl-6-phenyl-N^4-(pyridin-4-yl)-1,3,5-triazine-2,4-diamine]: the pIC50 is 5.00 to 6.00 on IDH2 R172K, over 7.00 at IDH2 R140Q and 6.00 to 7.00 in assay [1].

For the molecule `CCCNc1nc(Nc2ccncc2)nc(-c2ccccc2)n1` [Compound 249, 6-phenyl-N^2-propyl-N^4-(pyridin-4-yl)-1,3,5-triazine-2,4-diamine], the pIC50 at IDH2 R172K was 6.00 to 7.00; on IDH2 R140Q, over 7.00; in assay [1], 6.00 to 7.00.

For the molecule `c1ccc(-c2nc(NCC3CCC3)nc(Nc3ccncc3)n2)cc1` [Compound 250, N^2-(cyclobutylmethyl)-6-phenyl-N^4-(pyridin-4-yl)-1,3,5-triazine-2,4-diamine], the pIC50 at IDH2 R172K is 6.00 to 7.00; on IDH2 R140Q, over 7.00; in assay [1], 6.00 to 7.00.

Turning to `FC1(F)CC(Nc2nc(Nc3ccncc3)nc(-c3ccccc3)n2)C1` [Compound 253, N^2-(3,3-difluorocyclobutyl)-6-phenyl-N^4-(pyridin-4-yl)-1,3,5-triazine-2,4-diamine], the values for the pIC50 (on IDH2 R172K; at IDH2 R140Q; in assay [1]) were 6.00 to 7.00, over 7.00 and over 7.00, respectively.

For `FC1(F)CCC(Nc2nc(Nc3ccncc3)nc(-c3ccccc3)n2)CC1` [Compound 254, N^2-(4,4-difluorocyclohexyl)-6-phenyl-N^4-(pyridin-4-yl)-1,3,5-triazine-2,4-diamine], the pIC50 on IDH2 R172K is 6.00 to 7.00; at IDH2 R140Q it was over 7.00; in assay [1], 6.00 to 7.00.

In the case of `CC(Nc1nc(Nc2ccncc2)nc(-c2ccccc2)n1)C(C)(C)C` (stereo not drawn) [Compound 255, N^2-(3,3-dimethylbutan-2-yl)-6-phenyl-N^4-(pyridin-4-yl)-1,3,5-triazine-2,4-diamine], the figures for the pIC50 (at IDH2 R172K; at IDH2 R140Q; in assay [1]) were 6.00 to 7.00, over 7.00 and over 7.00, respectively.

On to `CC(Nc1nc(Nc2ccncc2)nc(-c2ccccc2)n1)C1CC1` (stereo not drawn) [Compound 257, N^2-(1-cyclopropylethyl)-6-phenyl-N^4-(pyridin-4-yl)-1,3,5-triazine-2,4-diamine], for which the pIC50 is 6.00 to 7.00 on IDH2 R172K, over 7.00 on IDH2 R140Q and 6.00 to 7.00 in assay [1].

In the case of `CC(C)(CO)CNc1nc(Nc2ccncc2)nc(-c2ccccc2)n1` [Compound 259, 2,2-dimethyl-3-(4-phenyl-6-(pyridin-4-ylamino)-1,3,5-triazin-2-ylamino)propan-1-ol], the pIC50 at IDH2 R172K was under 5.00; at IDH2 R140Q, 6.00 to 7.00; in assay [1] it was 6.00 to 7.00.

For the molecule `CCCCNc1nc(Nc2ccnc(Cl)c2)nc(-c2ccccc2)n1` [Compound 260], the pIC50 (at IDH2 R172K; on IDH2 R140Q; in assay [1]) was over 7.00 each time.

With `CC(C)(CO)CNc1nc(Nc2ccnc(Cl)c2)nc(-c2ccccc2)n1` [Compound 261], the pIC50 on IDH2 R172K was 6.00 to 7.00; at IDH2 R140Q, over 7.00; in assay [1], over 7.00.

With `CCOCCNc1nc(Nc2ccncc2)nc(-c2ccccc2)n1` [Compound 262, N^2-(2-ethoxyethyl)-6-phenyl-N^4-(pyridin-4-yl)-1,3,5-triazine-2,4-diamine], the pIC50 at IDH2 R172K is 5.00 to 6.00; at IDH2 R140Q, 6.00 to 7.00; in assay [1], 6.00 to 7.00.

Turning to `FC(F)(F)CCNc1nc(Nc2ccncc2)nc(-c2ccccc2)n1` [Compound 263, 6-phenyl-N^2-(pyridin-4-yl)-N^4-(3,3,3-trifluoropropyl)-1,3,5-triazine-2,4-diamine], the figures for the pIC50 (at IDH2 R172K; on IDH2 R140Q; in assay [1]) were 5.00 to 6.00, over 7.00 and 6.00 to 7.00, respectively.

`CC(C)Nc1nc(Nc2cncnc2)nc(-c2ccccc2)n1` [Compound 266, N^2-isopropyl-6-phenyl-N^4-(pyrimidin-5-yl)-1,3,5-triazine-2,4-diamine]: the pIC50 at IDH2 R172K was 5.00 to 6.00; on IDH2 R140Q, over 7.00; in assay [1] it was 6.00 to 7.00.

`O[C@@H]1CC[C@@H](Nc2nc(Nc3ccccc3)nc(-c3ccccc3)n2)C1` [Compound 267, (1R,3R)-3-(4-phenyl-6-(phenylamino)-1,3,5-triazin-2-ylamino)cyclopentanol]: the pIC50 on IDH2 R172K was 5.00 to 6.00; on IDH2 R140Q, over 7.00; in assay [1], 6.00 to 7.00.

On to `c1ccc(Nc2nc(NC3CCCOC3)nc(-c3ccccc3)n2)cc1` (stereo not drawn) [Compound 268, N^2,6-diphenyl-N^4-(tetrahydro-2H-pyran-3-yl)-1,3,5-triazine-2,4-diamine], for which the pIC50 at IDH2 R172K was 6.00 to 7.00; on IDH2 R140Q, over 7.00; in assay [1], 6.00 to 7.00.

On to `COCC(C)Nc1nc(Nc2ccccc2)nc(-c2ccccc2)n1` (stereo not drawn) [Compound 269, N^2-(1-methoxypropan-2-yl)-N^4,6-diphenyl-1,3,5-triazine-2,4-diamine], for which the values for the pIC50 (at IDH2 R172K; at IDH2 R140Q; in assay [1]) were 6.00 to 7.00, over 7.00 and over 7.00, respectively.
